One experiment addresses HIV-1 protease (Human immunodeficiency virus type 1 group M subtype B, UniProt P04585). As to the kind of experiment: biochemical. The conditions noted are these: Table VII. From the text:
We measured the inhibition constants of the compounds listed in Table VII against HIV-1 protease using the above-cited method of Pennington et al.

Experiment [1] deals with HIVIIIb in CCRM-CEM cells. Nature of the experiment: Anti-viral potency in CCRM-CEM cells acutely infected with HIVIIIb (method of Meek et al.), extracellular p24 antigen. Type of experiment: cell-based, HIV-1. The conditions noted are these: Human immunodeficiency virus 1, HIV replication, Table VIII, read-out: IC90 Range. In short, it runs like this: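 Compounds in DMSO were added to CCRM-CEM cells (CD4+ human T-cell lymphoma) acutely infected with HIVIIIb following Meek et al. Inhibition of viral replication was determined from extracellular p24 antigen concentration measured by enzyme immunoassay.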

pKi: −log10 of the molar value. Structures can show the parent of a compound that is named as a salt.

Take `CC(C)CN(C[C@@H](O)[C@H](Cc1ccccc1)NC(=O)OC(C)(C)C)S(=O)(=O)N(C)C` [Compound 68]: the pKi at HIV-1 protease was 6.92.

Compound `CC(C)CN(C[C@@H](O)[C@H](Cc1ccccc1)NC(=O)[C@@H](NC(=O)OCc1ccccn1)C(C)C)S(=O)(=O)c1ccc(F)cc1` [Compound 26] gave a pKi on HIV-1 protease of 10.00. Moreover, the IC90 in experiment [1] is 101 to 1000 nM.

The compound `O=C(N[C@@H](Cc1ccccc1)[C@H](O)CN(CC1CCCC1)S(=O)(=O)c1ccc2c(c1)OCO2)O[C@H]1CCOC1` [Compound 176] gave a pKi on HIV-1 protease above 10.00.

The compound `CC(C)CN(C[C@@H](O)[C@H](Cc1ccccc1)NC(=O)OCc1ccccn1)S(=O)(=O)c1ccc(F)c(F)c1` [Compound 108] showed a pKi on HIV-1 protease of 8.70. Besides, the IC90 in experiment [1] lay within 1000 to 10000 nM.

`CC(C)CN(C[C@@H](O)[C@H](Cc1ccccc1)NC(=O)OC1CCOC1)S(=O)(=O)c1ccc(F)cc1` (stereo partly drawn) [Compound 52, 4-Fluoro-N-((2 syn,3S)-2-hydroxy-4-phenyl-3-((R)-tetrahydrofuran-3-yloxycarbonylamino)-butyl)-N-isobutyl-benzenesulfonamide and 4-Fluoro-N-((2 syn,3S)-2-hydroxy-4-phenyl-3-((R)-tetrahydrofuran-3-yloxycarbonylamino)-butyl)-N-isobutyl-benzenesulfonamide] had a negative-log Ki (pKi) on HIV-1 protease of 9.40. The IC90 in experiment [1] lay in the range of 101 to 1000 nM.

Turning to `CC(C)CN(C[C@@H](O)[C@H](Cc1ccccc1)NC(=O)OC(C)(C)C)S(=O)(=O)c1ccc(N)c([N+](=O)[O-])c1` [Compound 62], the pKi on HIV-1 protease is 7.14.

For `CC(=O)Nc1ccc(S(=O)(=O)N(CC(C)C)C[C@@H](O)[C@H](Cc2ccccc2)NC(=O)OCC2CCOC2)cc1` (some centres unmarked) [Compound 92], on HIV-1 protease, the pKi is 7.70.

For the compound `CC(C)N(C[C@@H](O)[C@H](Cc1ccccc1)NC(=O)OC(C)(C)C)S(=O)(=O)c1ccc(F)cc1` [Compound 75], the pKi on HIV-1 protease was 6.54.

Consider `CC(C)CN(C[C@@H](O)[C@H](Cc1ccccc1)NC(=O)OCC1CCOC1)S(=O)(=O)c1ccc(F)cc1` (stereo partly drawn) [Compound 97, 4-Fluoro-N-(2 syn,3S)-2-hydroxy-4-phenyl-3-((tetrahydro-furan-(R)-3-ylmethoxycarbonylamino)-butyl)-N-isobutyl-benzenesulfonamide and 4-Fluoro-N-(2 syn,3S)-2-hydroxy-4-phenyl-3-((tetrahydro-furan-(S)-3-ylmethoxycarbonylamino)-butyl)-N-isobutyl-benzenesulfonamide], for which, at HIV-1 protease, the negative logarithm of the Ki (pKi) was 8.60. Further, the IC90 in experiment [1] was 101 to 1000 nM.

With `CC(C)CN(C[C@@H](O)[C@H](Cc1ccccc1)NC(=O)OC(C)(C)C)S(=O)(=O)c1cccc(F)c1` [Compound 50], the pKi at HIV-1 protease is 7.96. For the same compound, in experiment [1], the IC90 is 1000 to 10000 nM.

On to `CC(C)CN(C[C@@H](O)[C@H](Cc1ccccc1)NC(=O)[C@H](CC(N)=O)NC(=O)c1ccc2ccccc2n1)S(=O)(=O)c1ccc(-c2ccccn2)s1` [Compound 12, (S)-N-1-(1-(S)-Benzyl-2-(syn)-hydroxyl-3-(isobutyl-(5-pyridin-2-yl-thiophene-2-sulfonyl)-amino)-propyl)-2-((quinoline-2-carbonyl)-amino)-succinamide], for which the pKi at HIV-1 protease is 10.00. Also, the IC90 in experiment [1] is below 100 nM.

With `CC(C)CN(C[C@@H](O)[C@H](Cc1ccccc1)NC(=O)[C@H](CC(N)=O)NC(=O)c1ccc2ccccc2n1)S(=O)(=O)c1cccc2nonc12` [Compound 20, (S)-N-1-(3-((Benzo(1,2,5)oxadiazole-4-sulfonyl)-isobutyl-amino)-(1S,2 syn)-1-benzyl-2-hydroxy-propyl)-2-((quinoline-2-carbonyl)-amino)-succinamide], the 90% effect concentration (IC90) in experiment [1] is below 100 nM.

On to `C=CCOC(=O)N[C@@H](Cc1ccccc1)[C@H](O)CN(CC1CCCC1)S(=O)(=O)c1ccc(F)cc1` [Compound 114, N-((3-Allyloxycarbonylamino)-(2 syn,3S)-2-hydroxy-4-phenyl-butyl)-N-cyclopentylmethyl-4-fluoro-benzenesulfonamide], for which the IC90 in experiment [1] lay within 101 to 1000 nM.

In the case of `CC(C)CN(C[C@@H](O)[C@H](Cc1ccccc1)NC(=O)O[C@H]1CCOC1)S(=O)(=O)N1CCCCC1` [Compound 150, Piperidine-1-sulfonic acid ((2 syn,3S)-2-hydroxy-4-phenyl-3-((S)-tetrahydrofuran-3-yloxycarbonylamino)-butyl)-isobutyl-amide], the IC90 in experiment [1] is 101 to 1000 nM.

Turning to `C=CCOC(=O)N[C@@H](Cc1ccccc1)[C@H](O)CN(CC(C)C)S(=O)(=O)c1ccc(F)c(NC(C)=O)c1` [Compound 87], the pKi on HIV-1 protease is 8.00. In experiment [1], the IC90 was in the range of 1000 to 10000 nM.

As for `CC(C)CN(C[C@@H](O)[C@H](Cc1ccccc1)NC(=O)[C@H](CC(N)=O)NC(=O)c1ccc2ccccc2n1)S(=O)(=O)c1cc(S(=O)(=O)c2ccccc2)cs1` [Compound 13, (S)-N-1-(3-((4-Benzenesulfonyl-thiophene-2-sulfonyl)-isobutyl-amino)-(1S,2 syn)-1-benzyl-2-hydroxy-propyl)-2-((quinoline-2-carbonyl)-amino)-succinamide], in experiment [1], the IC90 was below 100 nM.

Turning to `C=CCOC(=O)N[C@@H](Cc1ccccc1)[C@H](O)CN(CC1CCCC1)S(=O)(=O)c1ccc2c(c1)CCN2C(C)=O` [Compound 156], the IC90 in experiment [1] was in the range of 101 to 1000 nM.

As for `CC(C)CN(C[C@@H](O)[C@H](Cc1ccccc1)NC(=O)O[C@H]1CCOC1)S(=O)(=O)c1ccc(-c2ccon2)s1` [Compound 145, 5-Isoxazol-3-yl-thiophene-2-sulfonic acid ((2 syn,3S)-2-hydroxy-4-phenyl-3-((S)-tetrahydrofuran-3-yloxycarbonylamino)-butyl)-isobutyl-amide], in experiment [1], the IC90 was 101 to 1000 nM.

Turning to `CC(C)CN(C[C@@H](O)[C@H](Cc1ccccc1)NC(=O)O[C@H]1CCOC1)S(=O)(=O)c1cccc(S(N)(=O)=O)c1` [Compound 112, Benzene-1,3-disulfonic acid 1-amide 3-((2 syn,3S)-2-hydroxy-4-phenyl-3-(3-(S)-tetrahydrofuran-3-yloxycarbonylamino)-butyl)-isobutyl-amide], the IC90 in experiment [1] lay within 101 to 1000 nM.

`CC(=O)Nc1cc(S(=O)(=O)N(CC(C)C)C[C@@H](O)[C@H](Cc2ccccc2)NC(=O)OC(C)(C)C)ccc1F` [Compound 54]: the IC90 in experiment [1] is 1000 to 10000 nM.

With `CC(C)CN(C[C@@H](O)[C@H](Cc1ccccc1)NC(=O)OCc1cccnc1)S(=O)(=O)c1ccc(F)cc1` [Compound 98, 4-Fluoro-N-((2 syn,3S)-2-hydroxy-4-phenyl-3-(pyridin-3-yl-methoxycarbonylamino)-butyl)-N-isobutyl-benzenesulfonamide], in experiment [1], the IC90 lay in the range of 101 to 1000 nM.

As to `Nc1ccc(S(=O)(=O)N(CC2CCCC2)C[C@@H](O)[C@H](Cc2ccccc2)NC(=O)O[C@H]2CCOC2)cc1` [Compound 171, 4-Amino-N-cyclopentylmethyl-N-((2 syn,3S)-2-hydroxy-4-phenyl-3-((S)-tetrahydrofuran-3-yloxycarbonylamino)-butyl)-banzenesulfonamide], the IC90 in experiment [1] is below 100 nM.

On to `CC(=O)Nc1nc(C)c(S(=O)(=O)N(CC(C)C)C[C@@H](O)[C@H](Cc2ccccc2)NC(=O)[C@H](CC(N)=O)NC(=O)c2ccc3ccccc3n2)s1` [Compound 18], for which, in experiment [1], the IC90 fell in the range of 101 to 1000 nM.

Consider `CC(C)CN(C[C@@H](O)[C@H](Cc1ccccc1)NC(=O)OCc1cccnc1)S(=O)(=O)c1ccc2nonc2c1` [Compound 82], for which, in experiment [1], the IC90 lay in the range of 1000 to 10000 nM.

Consider `C=CCOC(=O)N[C@@H](Cc1ccccc1)[C@H](O)CN(CC1CCCC1)S(=O)(=O)c1ccc(NC(C)=O)cc1` [Compound 146, N-(4-((3-(Allyloxycarbonylamino)-(2 syn,3S)-2-hydroxy-4-phenyl-butyl)-cyclopentylmethylsulfamoyl)-phenyl)-acetamide], for which the IC90 in experiment [1] fell in the range of 101 to 1000 nM.

Turning to `CC[C@H](C)[C@H](NC(=O)c1cnc2ccccc2n1)C(=O)N[C@@H](Cc1ccccc1)[C@H](O)CN(CC(C)C)S(=O)(=O)c1ccc(F)c(NC(C)=O)c1` [Compound 188], in experiment [1], the IC90 lay within 1000 to 10000 nM.

Take `C=CCOC(=O)N[C@@H](Cc1ccccc1)[C@H](O)CN(CC1CCCC1)S(=O)(=O)c1ccc(OC)cc1` [Compound 141, N-((3-allyloxycarbonylamino)-(2 syn,3S)-2-hydroxy-4-phenyl-butyl)-N-cyclopentylmethyl-4-methoxy-benzenesulfonamide]: in experiment [1], the concentration for an effect of 90% (IC90) lay in the range of 101 to 1000 nM.

`C=C(C)COC(=O)N[C@@H](Cc1ccccc1)[C@H](O)CN(CC(C)C)S(=O)(=O)c1ccc(Cl)c(Cl)c1` [Compound 106]: the IC90 in experiment [1] fell in the range of 1000 to 10000 nM.

Turning to `CC(C)CN(C[C@@H](O)[C@H](Cc1ccccc1)NC(=O)O[C@H]1CCOC1)S(=O)(=O)c1cccnc1` [Compound 144, Pyridine-3-sulfonic acid ((2 syn,3S)-2-hydroxy-4-phenyl-3-((S)-tetrahydrofuran-3-yloxycarbonylamino)-butyl)-isobutyl-amide, trifluoroacetic acid salt], the IC90 in experiment [1] fell in the range of 101 to 1000 nM.

Turning to `C=CCOC(=O)N[C@@H](Cc1ccccc1)[C@H](O)CN(CC(C)C)S(=O)(=O)c1ccc(F)cc1` [Compound 122], the IC90 in experiment [1] was in the range of 1000 to 10000 nM.

`C=C(C)CN(C[C@@H](O)[C@H](Cc1ccccc1)NC(=O)O[C@H]1CCOC1)S(=O)(=O)c1ccc(F)cc1` [Compound 135]: the IC90 in experiment [1] fell in the range of 1000 to 10000 nM.

Regarding `CC(C)CN(C[C@@H](O)[C@H](Cc1ccccc1)NC(=O)O[C@H]1CCOC1)S(=O)(=O)c1ccc2nonc2c1` [Compound 66], the IC90 in experiment [1] lay within 101 to 1000 nM.

As for `CC(=O)Nc1ccc(S(=O)(=O)N(CC(C)C)C[C@@H](O)[C@H](Cc2ccccc2)NC(=O)O[C@H]2CCOC2)cc1` [Compound 48, N-(4-(((2 syn,3S)-2-Hydroxy-4-phenyl-3-((S)-tetrahydrofuran-3-yloxycarbonylamino)-butyl)-isobutyl-sulfamoyl)-phenyl)-acetamide], the IC90 in experiment [1] is 101 to 1000 nM.

As to `O=C(N[C@@H](Cc1ccccc1)[C@H](O)CN(CC1CCCC1)S(=O)(=O)c1cccnc1)O[C@H]1CCOC1` [Compound 149, Pyridine-3-sulfonic acid cyclopentylmethyl-((2 syn,3S)-2-hydroxy-4-phenyl-3-((S)-tetrahydrofuran-3-yloxycarbonylamino)-butyl)-amide], the IC90 in experiment [1] was 101 to 1000 nM.

Usually pKi stands for −log10 of the Ki, conventionally taken in molar units. For orientation: IC90 means the point of the concentration-response curve where the effect stands at 90%.

The values above are taken from patent US6004957A, “Sulfonamide inhibitors of aspartyl protease” (Vertex Pharmaceuticals, Incorporated, priority 1998, dated 1999).
